Two compounds from patent publication US20120302609A1, “Pyrazolines for the Modulation of PKM2” (Dynamix Pharmaceuticals LTD., priority 2011, published 2012) can be followed below.

SMILES strings stand for the structures. A value given as a limit tells only on which side of the number the result lay.

One test relates to DU145 (prostate). Put plainly: Cell proliferation assay (CellTiter-Glo Luminescent). It counts as cell-based. To be noted: Homo sapiens, DU-145, Complete media, 96 hr.
Test [1] concerns HT-29 (Colorectal cancer cell line). As to the kind of experiment: Cell proliferation, Assay Protocol I (CellTiter-Glo). It counts as cell-based. To be noted: Homo sapiens. The method, then:
Growth inhibitory activity against the human tumor cell lines was determined using Promega's CellTiter-Glo® assay. The cell lines of interest were placed in a 96-well microculture plate (Costar® white, flat bottom #3917) in a total volume of 90 μL/well. After 24 hours of incubation in a humidified incubator at 37° C. with 5% CO2 and 95% air, 10 μL of serially diluted test compounds in growth medium were added to each well. After 96 total hours of culture in a CO2 incubator, the plated cells and CellTiter-Glo® (Promega # G7571) reagents were brought to room temperature to equilibrate for 30 minutes. 100 μL of CellTiter-Glo® reagent was added to each well. The plate was shaken for 2 minutes and then left to equilibrate for 10 minutes before reading luminescence on the Tecan GENios microplate reader.
Percent inhibition of cell growth was calculated relative to untreated control wells. All tests were performed in duplicate for each concentration level. The IC50 value for the test compounds was estimated using Prism 3.03 by curve-fitting the data.

On to `COc1ccc([C@@H]2CC(c3ccc(NS(=O)(=O)c4ccc(F)cc4)cc3)=NN2C(C)=O)cc1` [Compound 13A, (S)—N-(4-(1-acetyl-5-(4-methoxyphenyl)-4,5-dihydro-1H-pyrazol-3-yl)phenyl)-4-fluorobenzenesulfonamide], for which the AC50 in the test with DU145 (prostate) lay within 10 to 20 µM.

On to `CCS(=O)(=O)Nc1ccc(C2=NN(C(C)=O)C(c3ccc(OC)cc3)C2)cc1` (racemic) [Compound 1A, N-(4-(1-acetyl-5-(4-methoxyphenyl)-4,5-dihydro-1H-pyrazol-3-yl)phenyl)ethanesulfonamide], for which the IC50 in test [1] is > 100 µM.
